# Results taken from patent US12448425B2, “Therapeutic peptides” (Board of Regents, The University of Texas System, priority 2019, dated 2025).
# Assays:
# [1] = system: A2780cp20-Luc tumors; test: Orthotopic A2780cp20-Luc ovarian cancer model; type: in vivo, mouse
# Source text: Female nude mice were intraperitoneally (i.p.) inoculated with […] tumor cells. […] Tumor growth was monitored by bioluminescence imaging (IVIS). […] CTL, untreated control.
# Orthotopic ovarian cancer models. […] For all therapeutic experiments, groups of the mice (n=8-10) were inoculated intraperitoneally with A2780cp20-Luc cells. […] Untreated mice were used as a control.
# Immunoblotting, immunoprecipitation, and co-immunoprecipitation. For immunoblotting, lysates from cultured cells were prepared using modified radioimmunoprecipitation assay (RIPA) buffer (50 mM Tris-HCl [pH 7.4], 150 mM NaCl, 1% Triton, 0.5% deoxycholate) plus 25 μg/mL leupeptin, 10 μg/mL aprotinin, 2 mM EDTA, and 1 mM sodium orthovanadate. To prepare lysates of snap-frozen tissue from mice, approximately 30-mm^3 cuts of tissue were disrupted with a tissue homogenizer and subjected to centrifugation at 13,000 rpm for 30 min in modified RIPA buffer. The protein concentrations were determined by using a BCA Protein Assay Reagent kit (Pierce Biotechnology, Rockford, IL). Lysates were loaded and separated by 8% sodium dodecyl sulfate (SDS)-polyacrylamide gel electrophoresis (PAGE). Proteins were transferred to a nitrocellulose membrane by semidry electrophoresis (Bio-Rad Laboratories, Hercules, CA) overnight, blocked with 3% BSA for 1 h, and then incubated at 4° C. with primary antibody overnight. After washing with a mixture of tris-buffered saline and Tween 20 (TBST) solutions, the membranes were incubated with horseradish peroxidase (HRP)-conjugated horse anti-mouse IgG (1:2000, GE Healthcare, Amersham Place, UK) for 2 h. HRP was visualized by an enhanced chemoluminescence detection kit (Pierce). […] Densitometry was performed using ImageJ software. For immunoprecipitation and co-immunoprecipitation, cells were subjected to lysis in non-denaturing NP40 cell lysis buffer (Cell Signaling Technology, Boston, MA). The extracts were incubated with A/G-conjugated antibody at 4° C. for 2 h, and for immunoprecipitation the beads were washed twice with RIPA buffer, once with 0.5 m LiCl in 0.1 m Tris (pH 8.0), and once with PBS. Reactions were boiled in sample buffer, and proteins were then subjected to 10% SDS-PAGE and immunoblotting.
# Immunofluorescence analysis of CD31 was performed on 5-μm-thick fresh-frozen tissue samples. After deblocking with acetone, acetone-chloroform (1:1), and acetone for 5 min, non-specific binding was blocked with 4% fish gelatin (Biotium Inc, Hayward, CA) in PBS for 30 min.
# Immunohistochemistry (IHC) analysis.
# [2] = Particle size by transmission electron microscopy; type: physicochemical
# Procedure: CCPM-BIDEN-AP conjugation. CCPM with amine functionalized surface was synthesized according to reported procedures (Koolpe et al., 2005). To introduce a maleimide group to the CCPM, an aliquot of N-(γ-maleimidobutyryloxy)-succinimide ester) (GMBS) in DMF ([…], 0.16 mmol) was added into the CCPM ([…], 2.6 nmol nanoparticles) in 1.2 mL of phosphate-buffered saline solution (PBS, pH 8). The mixture was stirred for 3 h at 37° C. The product was purified using a PD-10 column to remove unreacted GMBS. To introduce a sulfhydryl group to BIDEN-AP, the amino acid cysteine was conjugated to the N-terminal amine of BIDEN-AP. The resulting sulfhydryl-containing Cys-BIDEN-AP was mixed with 2 mL of a solution of CCPM-maleimide (0.16 mmol equivalent maleimide) in PBS with a 2:1 molar ratio of Cys-BIDEN-AP to maleimide groups (CCPM). […] The unreacted Cys-BIDEN-AP was quantified on an Agilent 1100 Series LC/MSD-TOF instrument equipped with a Vydac C18 column. The molar ratio of BIDEN-AP to CCPM was calculated on the basis of Cys-BIDEN-AP consumed (total Cys-BIDEN-AP minus remaining Cys-BIDEN-AP). The size of CCPM-BIDEN-AP was determined by transmission electron microscopy (TEM). […]
substance,measurement,setting,value
CCPM-BIDEN-AP: nano-conjugate of Cys-BIDEN-AP on core-crosslinked polymeric micelles via maleimide (GMBS) (CTNYLFSPNGPIARAW; D-residues),bioluminescence signal intensity,"[1]; day 28, 13 mg/kg/injection i.p., 10 doses",significantly reduced the bioluminescence signal intensity
same,"metastatic nodules, comparison of the two agents",[1]; day 31,reduced metastatic nodules to a greater extent than BIDEN-AP
same,"tumor growth in the peritoneum (tumor weight, number of metastatic nodules)","[1]; day 31, 13 mg/kg/injection i.p., 10 doses",significantly reduced tumor growth
same,apoptotic cell death in CD31 endothelial vasculature (TUNEL),[1]; excised tumors,induced apoptotic cell death
same,tumor cell proliferation (Ki67-positive cells),[1]; excised tumors,significantly reduced tumor cell proliferation
same,microvessel density (MVD),"[1]; excised tumors, CD31",decreased microvessel density
same,EphB4 and Crk1 phosphorylation in vivo,[1]; orthotopic A2780cp20 tumors,induce EphB4 and Crk1 phosphorylation
same,mean diameter (TEM),[2],24±3 nm
